# In US10370373B2, “Antitumor derivatives for differentiation therapy” (THE CLEVELAND CLINIC FOUNDATION, priority 2016, dated 2019):
# Columns and labels:
# Format in all cases: cell-based
# THP1 AML cells [1] = assay: CD11b / CD14 differentiation marker flow cytometry; conditions: THP-1 cells, 5 days after treatment
# Description: (§1) E) Elevation of differentiation markers CD11b and CD14. […] G) Upregulation of p27 (CDKN1B) (ED3 lysates were unavailable).
# (§2) (A) CD11b flow cytometry was performed on THP-1 cells 5 days after the indicated treatments. (B) Annexin-PI flow cytometry of the same cells to determine the percent of cells that were undergoing apoptosis after treatments with the different compounds. Camptothecin is a positive apoptosis inducer.
# THP-1 cells = assay: Annexin-PI flow cytometry for apoptosis; conditions: 5 days after treatment
# Description: as §2
# THP1 AML cells [2] = assay: cell number / growth of THP1 AML cells; conditions: derivatives at 1 mM vs ED2 at 10 μM
# From the text: as §1
# [3] = cell viability (zolpidem)
SMILES,differentiation induction via CD11b flow cytometry versus decitabine and ED2 (THP1 AML cells [1]),activation of apoptosis pathway (Annexin-PI) (THP-1 cells),growth inhibitory activity against THP-1 cells versus ED2 (THP1 AML cells [2]),cell viability [3]
"CCCCSc1ccc2nc(-c3ccc(OCCCN)cc3)cn2c1 [NH2, 3-(4-(6-(butylthio)imidazo[1,2-a]pyridin-2-yl)phenoxy)propan-1-amine]",better differentiation inducers than decitabine (DAC) and ED2,do not activate the apoptosis pathway,more potent growth inhibitory activity,
O=C(O)CCCC[C@@H]1SC[C@@H]2NC(=O)N[C@@H]21 [biotin],better differentiation inducers than decitabine (DAC) and ED2,do not activate the apoptosis pathway,more potent growth inhibitory activity,
Cc1ccc(-c2nc3ccc(C)cn3c2CC(=O)N(C)C)cc1 [zolpidem],,,,does not affect cell viability
